“Also recorded” adds a separate entry of the source. Read-outs that look alike come from different tables or passages of the source. Marks after values point to notes of the source that are not given here.

One experiment has as its system 1BR3 human fibroblasts. The experiment is described as follows: MTT cytotoxicity assay for healthy human cells. In kind it is cell-based. Conditions: 1BR3 healthy cells, 48 h. As to the method: (§1) The in vitro cytotoxicity was determined by means of (4,5-dimethylthiazol-2-yl)-2,5-diphenyltetrazolium bromide (MTT) method. In brief, HaCaT, 1BR3 cells were seeded in 96-well plates at an initial density of […] and allowed to attach. Next, the old medium was removed and a fresh one was added containing five concentrations (100 µM, 10 µM, 1 µM, 0.1 µM, and 0.01 µM) of the tested compounds 6 and 7 after which cells were incubated for 48 h. The control cells were treated with the same amount of DMSO, the highest concentration of DMSO present in the medium being 0.5%. A volume of […] MTT reagent (5 mg/mL) was added in each well. During a 4 h contact period, the intact mitochondrial reductase converted and precipitated MTT as blue crystals. The precipitated crystals were dissolved in […] of lysis solution provided by the manufacturer (Sigma-Aldrich). Finally, the reduced MTT was spectrophotometrically analyzed at 570 nm, using a microplate reader (xMark Microplate Spectrophotometer, Bio-Rad, Hercules, CA, USA). GI50 was calculated for each healthy cell line.

In experiment [1] the test system is HaCaT—human keratinocytes. Description: MTT cytotoxicity assay for healthy human cells. In kind it is cell-based. Conditions: 48 h. How it is done:
as §1

The subject of the next experiment is RPMI melanoma cells. The experiment is described as follows: DAPI staining assay. In kind it is cell-based, human. Conditions: 24 h. How it is done:
(§2) For this purpose, the melanoma cell lines selected were A375, RPMI, and SK-MEL-28, given that these three lines have very good correlation coefficient scores with tumor cells originating from a wide range of malignant tumors, based on transcriptional similarity. This feature can also lead to increased clinical applicability potential for the tested substances. The two compounds were tested against three human melanoma cell lines: A375, RPMI, and SK-MEL-28 melanoma cell lines by applying 0.1, 1, and 5 μM solutions, respectively. 4′,6-Diamidino-2-phenylindole (DAPI) is a DNA-specific marker which allows the direct fluorescent blue staining of nuclei against a dark background, widely used in life sciences research. In effect, the DAPI stain binds to chromatin within the nuclei and provides their clear outline under the blue light (405 nm) while the cytoplasmic medium remains non-fluorescent. Moreover, due to its lack of interference with DNA–linker interactions, DAPI stain can provide fine details of nuclei’ shapes instead of merely highlighting their centers which contain the highest concentration of nucleic acids.
(§3) The DAPI assay was performed on three human melanoma cell lines: A375, RPMI, and SK-MEL-28. The cells were cultured in 24-well plates at 2x10^5 cells/well; compounds 6 and 7 in three different concentrations (0.1, 1, and 5 μM); and three DMSO concentrations (0.1, 1, and 5 μM) were used to stimulate cells. The immunofluorescent staining technique was performed according to a previously described protocol and adapted to our laboratory conditions. Thus, after 24 h of stimulation, the cells were fixed with 4% paraformaldehyde and incubated at room temperature for 1 h. Cell permeability was 30 min later performed with 2% Triton X solution in phosphate-buffered saline (PBS). The 300 nM 4’,6-diamidino-2-phenylindole (DAPI) staining was used to visualize cell nuclei under the fluorescence microscope at 40x magnification using CellSens V1.15 software (Olympus, Tokyo, Japan) and Image J software.

For a further experiment, the system named is SK-MEL-28 melanoma cells. Description: DAPI staining assay. In kind it is cell-based, human. Conditions: 24 h. As to the method: as §2, §3
A further experiment concerns A375 melanoma cells. The experiment is described as follows: DAPI staining assay. Conditions: 24 h. In kind it is cell-based, human. How it is done: as §2, §3
A further experiment deals with Bak gene. The experiment is described as follows: rtPCR gene expression in A375 cells. In kind it is cell-based, human. The source says:
(§4) We applied rtPCR techniques in order to investigate the effect of our two compounds on the anti-apoptotic Bcl-XL and Bcl-2 genes as well as the proapoptotic Bak and Bad genes (Table 4). […] Therefore, we may presume that the apoptotic mechanism of both compounds against the A375 cells is not mediated by the tested genes or that alterations in their ratio are the underlying mechanism.

Experiment [2] concerns Bad gene. Description: rtPCR gene expression in A375 cells. In kind it is cell-based, human.
Excerpt: as §4

The subject of another experiment is Bcl-XL gene. Description: rtPCR gene expression in A375 cells. In kind it is cell-based, human.
Excerpt: as §4

The test system of experiment [3] is Bcl-2 gene. The experiment is described as follows: rtPCR gene expression in A375 cells. In kind it is cell-based, human.
Excerpt: as §4

Experiment [4] concerns Bad gene. Description: rtPCR gene expression in Sk-Mel-28 cells. In kind it is cell-based, human.
Experiment [5] has as its system Bcl-2 gene. Description: rtPCR gene expression in RPMI cells. In kind it is cell-based, human.
The test system of the next experiment is chorioallantoic membrane. The experiment is described as follows: Chorioallantoic membrane (CAM) angiogenesis assay. Conditions: 1 µM in 0.5% DMSO, applied daily for 72 h. In kind it is in vivo, chicken. As to the method: The potential effects of compounds 6 and 7 on the angiogenesis process were investigated using the chorioallantoic membrane (CAM) assay which uses fertilized chicken eggs, incubated at 37 °C, under controlled humidity. On the third day of incubation (embryonic day 3 of development, EDD 3), a small opening was made at one end of the eggs and 5–6 mL of albumen was removed, thus facilitating the separation of the chorioallantoic membrane. On EDD 4, a window was cut on the upper side of the egg and subsequently resealed, returning the specimens to the incubator. On EDD 7 (0 h), 10 µL of each test solution was administered inside a plastic ring previously applied on the intensely vascularized surface of the CAM [75, 76]. […] All samples were applied daily in the same volume for 72 h. For each analyzed sample, 5 eggs were used, and all samples were applied in triplicate. Macroscopic evaluation was daily performed in ovo by means of stereomicroscopy (ZEISS SteREO Discovery.V8, Göttingen, Germany) and all images were registered and processed by Axiocam 105 color, AxioVision SE64. Rel. 4.9.1 Software, (ZEISS Göttingen, Germany), ImageJ (ImageJ Version 1.50e, https://imagej.nih.gov/ij/index.html, accessed on 12 May 2021) and GIMP software (GIMP v 2.8, https://www.gimp.org/, accessed on 12 May 2021).

As to `C[C@H]1[C@@H]2[C@H]3CC[C@@H]4[C@@]5(C)C/C(=C\c6cccnc6)C(=O)C(C)(C)[C@@H]5CC[C@@]4(C)[C@]3(C)CC[C@]23CO[C@@]1(C)[C@@H](C(=O)/C=C/c1cccnc1)C3` [Compound 6, 3-Oxo-2-(3-pyridinylidene)-21-[3-(2E-pyridinyl)-prop-2-en-1-one]-20β,28-epoxy-18α,19βH-ursane], the 50% growth inhibitory concentration (GI50) is 23.1 µM in the experiment on 1BR3 human fibroblasts; above 15 µM in the experiment on 1BR3 human fibroblasts (Homo sapiens, Fibroblast); 18.6 µM in experiment [1]; above 15 µM in [1] (Homo sapiens, HaCaT). The “Nuclear changes, DAPI staining” value with RPMI melanoma cells (0.1 μM) was “massive nucleus condensation and fragmentation”; with RPMI melanoma cells (5 μM), “occurrence of nuclear residues”; in the experiment on SK-MEL-28 melanoma cells (SK-Mel-28, 0.1 μM) it was “massive nucleus condensation and fragmentation”; in the experiment on SK-MEL-28 melanoma cells (SK-Mel-28, 5 μM), “occurrence of nuclear residues”; with A375 melanoma cells (A375, 0.1 μM) it was “nuclear fragmentation”; in the experiment with A375 melanoma cells (A375, 1 μM), “nuclear fragmentation”. In the experiment with A375 melanoma cells (A375, 5 μM), the “Nuclear changes, DAPI staining” value is recorded as “chromatin becomes condensed”. The figures for the “Bak gene expression, Mean” value in the experiment with Bak gene and with Bak gene (listed as compound 6) were “downregulated” and 0.546 ***, respectively. Besides, the “Bad gene expression, Mean” value with Bad gene [2] was “downregulated”; in the experiment on Bad gene [2] (listed as compound 6), 0.150 *; with Bad gene [4] it was 15.716 **. For the same compound, the “Bcl-XL gene expression, Mean” value in the experiment on Bcl-XL gene is reported as 0.286 *. The “Bcl-2 gene expression, Mean” value with Bcl-2 gene [3] was 2.570; with Bcl-2 gene [5] it was 0.246 **. Besides, the “Effect on the normal angiogenic process” value with chorioallantoic membrane was “only slightly affected angiogenesis”.
For `COC(=O)[C@]12CC[C@@H](C(=O)/C=C/c3cccnc3)[C@@H]1[C@H]1CC[C@@H]3[C@@]4(C)C/C(=C\c5cccnc5)C(=O)C(C)(C)[C@@H]4CC[C@@]3(C)[C@]1(C)CC2` [Compound 7, methyl 2,30-bis-(3-pyridinylidene)-3,20-dioxo-lup-28-oate], the concentration for 50% growth inhibition (GI50) was 20.9 µM in the experiment on 1BR3 human fibroblasts; above 15 µM in the experiment with 1BR3 human fibroblasts (Homo sapiens, Fibroblast); 15.4 µM in experiment [1]; above 15 µM in experiment [1] (Homo sapiens, HaCaT). Further, the “Nuclear changes, DAPI staining” value with RPMI melanoma cells (0.1 μM) was “slight nucleus fragmentation”; in the experiment on RPMI melanoma cells (1 μM), “nuclear fragmentation and chromatin condensation”; in the experiment with RPMI melanoma cells (5 μM) it was “nuclear fragmentation and chromatin condensation”; in the experiment on SK-MEL-28 melanoma cells (SK-Mel-28, 0.1 μM), “slight nucleus fragmentation”; with SK-MEL-28 melanoma cells (SK-Mel-28, 1 μM) it was “nuclear fragmentation and chromatin condensation”; with SK-MEL-28 melanoma cells (SK-Mel-28, 5 μM), “nuclear fragmentation and chromatin condensation”. The “Nuclear changes, DAPI staining” value was “nucleus fragmentation” in the experiment with A375 melanoma cells (A375, 0.1 μM); “condensation of chromatin” with A375 melanoma cells (A375, 1 μM); “condensation of chromatin” with A375 melanoma cells (A375, 5 μM). Moreover, the “Bak gene expression, Mean” value is “upregulation” with Bak gene and 17.743 *** with Bak gene (listed as compound 7). In addition, the “Bad gene expression, Mean” value was “upregulation” in the experiment on Bad gene [2], 155.433 * in the experiment on Bad gene [2] (listed as compound 7) and 65.946 *** with Bad gene [4]. The “Bcl-XL gene expression, Mean” value was “upregulation” in the experiment with Bcl-XL gene and 28.893 ** in the experiment with Bcl-XL gene (listed as compound 7). Further, the results for the “Bcl-2 gene expression, Mean” value in the experiment on Bcl-2 gene [3], in the experiment on Bcl-2 gene [3] (listed as compound 7) and with Bcl-2 gene [5] were “upregulation”, 81.120 *** and 0.313, respectively. In addition, the “Effect on the normal angiogenic process” value in the experiment with chorioallantoic membrane is recorded as “did not interfere with the normal angiogenic process; also recorded: does not influence the angiogenic process”.

The values above are taken from article PMC8509773, “3-Pyridinylidene Derivatives of Chemically Modified Lupane and Ursane Triterpenes as Promising Anticancer Agents by Targeting Apoptosis” (International Journal of Molecular Sciences, 2021).
